Results reported in patent US11845730B2, “1,3-substituted cyclobutyl derivatives and uses thereof” (Novartis AG, priority 2021, dated 2023).
Where a name gives a salt, the structure may show the parent alone.

Biological target: human TRPV1 (Homo sapiens (Human), UniProt Q8NER1)
Details: read-out: IC50 (μM), antagonist effect against human TRPV1; CHO cells expressing human TrpV1; stimulated with 2.5 μM NADA (EC80); mean of at least three independent experiments
Procedure: Chinese Hamster Ovary (CHO) cells transfected to express human TrpV1 receptor (which are herein referred to as CHO-huTrpV1 cells), were grown in F-12 Ham's Nutrient Mixture media (HyClone SH30026.01) supplemented with 10% Fetal Bovine Serum (Invitrogen #26140-079), 1% Antibiotic/antimycotic (Invitrogen #15240-062) and 500 ug/mL geneticin (ThermoFisher scientific #1031035). Cells were grown in T-75 flasks at 37° C. incubator with 5% CO2. The cells were passaged twice a week at a ratio of 1:10 to 1:20 to maintain steady growth. For experimentation, cells were harvested at approximately 80% confluency and plated onto 384 well black cell culture plates (cat #781091, Greinier Bio-One Inc.) at 15,000 cells per well in 20 μl media and grown overnight.
The loading dye was prepared following instruction of Calcium 6 assay kit (Molecular Probes, #R8190): 10 ml buffer from bottle B was added to 1 vial of bottle A (adapted to room temperature from −20° C.) and mixed well, then 2.5 mM of fresh prepared probenecid, was added and mixed well. 20 μl/well of loading dye was added on top of the cells, and incubated at 37° C. for 1 hour 30 min.
Assay buffer preparation: 1×HBSS, 2 mM HEPES, 0.1% BSA plus 2.5 mM freshly prepared probenecid (Invitrogen, #P36400). 25 μl/well assay buffer in 384 well clear plate (cat #782281, Greiner Bio-one) was dispensed with buffer distributor (Multidrop ComB1 from Thermo Scientific). The compounds were in 384 Echo plate (cat #LPL0200, Labcyte) and the starting concentration of compound was 10 mM, then 1 to 3 serial dilution in 100% DMSO, 8 ul/well). 125 nl compounds was transferred to the 384 well plate containing 25 μl/well buffer with Echo® 555 Liquid Handler (Labcyte), such that the compound concentration was 5 fold of final concentration. The plate was shook slowly at 40 rpm/min for 10 min to mix. 10 μl of 5 fold compound in the buffer was transferred to the cell plate (containing 20 μl cells and 20 μl dye) using Vertical Pipetting Station 384ST (Agilent Technologies). Six fold of final concentration of NADA (N-arachidonyl dopamine, cat #A8848, Sigma) in the assay buffer was prepared and 30 μl/well was distributed in 384 well clear plate.
After compounds were added to the cell plate with loading dye, within 10-15 minutes, cell plate and plate containing NADA was placed into the FLIPR (Fluorescent Imaging Plate Reader) instrument (Tetra System, Molecular device). The TRPV1 receptor was stimulated by application of 10 μl per well of NADA. For testing the effect of compounds for possible antagonism, 2.5 μM NADA was used at the EC80 concentration.
For determination of antagonist IC50 values (concentration of antagonist that inhibits response to NADA by 50%), at least 10 antagonist concentration were measured in triplicate. The response in the presence of the antagonist was calculated as a percentage of the control response to NADA and was plotted against the concentration of the antagonist. The IC50 was estimated by non-linear regression analysis to sigmoidal-logistic curves by HELIOS (PROD 2) system. These values were averaged (means and standard error of the mean) for at least three independent experiments.

human TRPV1, sequence (Q8NER1 whole entry): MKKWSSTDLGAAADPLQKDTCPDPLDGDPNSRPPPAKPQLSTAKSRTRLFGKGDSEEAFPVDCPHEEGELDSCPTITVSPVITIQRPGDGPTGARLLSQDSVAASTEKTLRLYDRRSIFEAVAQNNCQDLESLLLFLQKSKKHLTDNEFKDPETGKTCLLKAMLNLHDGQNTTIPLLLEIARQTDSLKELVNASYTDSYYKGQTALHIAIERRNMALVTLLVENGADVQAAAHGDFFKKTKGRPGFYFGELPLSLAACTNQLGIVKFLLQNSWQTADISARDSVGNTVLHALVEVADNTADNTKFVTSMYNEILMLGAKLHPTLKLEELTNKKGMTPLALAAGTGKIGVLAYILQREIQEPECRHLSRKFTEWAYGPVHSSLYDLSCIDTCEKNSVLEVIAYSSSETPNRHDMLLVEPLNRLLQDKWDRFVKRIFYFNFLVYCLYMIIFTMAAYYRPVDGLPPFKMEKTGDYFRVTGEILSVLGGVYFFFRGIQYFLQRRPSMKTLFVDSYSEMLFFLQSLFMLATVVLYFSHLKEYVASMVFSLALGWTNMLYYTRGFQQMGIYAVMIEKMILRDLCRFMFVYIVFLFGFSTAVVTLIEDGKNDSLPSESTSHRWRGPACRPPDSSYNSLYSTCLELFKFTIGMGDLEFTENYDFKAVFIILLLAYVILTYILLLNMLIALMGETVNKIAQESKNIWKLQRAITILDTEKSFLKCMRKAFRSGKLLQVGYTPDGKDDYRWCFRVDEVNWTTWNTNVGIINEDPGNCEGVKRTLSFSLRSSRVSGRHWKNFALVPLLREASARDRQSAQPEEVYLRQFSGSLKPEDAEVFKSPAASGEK

`OCC(O)c1cc(F)c(CN[C@H]2C[C@H](Oc3ccc(F)c(C(F)(F)F)c3)C2)c2ccncc12` (mixture of isomers) [Example 7 racemic, 1-(6-fluoro-5-((((1r,3r)-3-(4-fluoro-3-(trifluoromethyl)phenoxy)cyclobutyl)amino)methyl)isoquinolin-8-yl)ethane-1,2-diol] was tested, and the IC50 was 10.4 nM.
`OCCC(O)c1cc(F)c(CNC2CC(Oc3ccc(F)c(C(F)(F)F)c3)C2)c2ccncc12` (racemic) [Example 9 racemic, 1-(6-fluoro-5-((((1r,3r)-3-(4-fluoro-3-(trifluoromethyl)phenoxy)cyclobutyl)amino)methyl)isoquinolin-8-yl)propane-1,3-diol] gave an IC50 of 0.58 nM.
In the case of `OC[C@@H](O)c1cc(F)c(CN[C@H]2C[C@H](Oc3ccc(F)c(C(F)(F)F)c3)C2)c2ccncc12` (single isomer, unassigned; peak 1) [Example 7 peak 1], the IC50 is reported as 0.62 nM.
For `OCC[C@H](O)c1cc(F)c(CN[C@H]2C[C@H](Oc3ccc(F)c(C(F)(F)F)c3)C2)c2ccncc12` (single isomer, unassigned; peak 1) [Example 9 peak 1], the IC50 was 0.09 nM.
Work on `Nc1cc2c(CN[C@H]3C[C@H](Oc4ccc(F)c(C(F)(F)F)c4)C3)c(F)cc([C@@H](O)CO)c2cn1` (single isomer, unassigned; peak 1) [Example 21 peak 1] yielded an IC50 of 4.42 nM.
`OC[C@H](O)c1cc(F)c(CN[C@H]2C[C@H](Oc3ccc(F)c(C(F)(F)F)c3)C2)c2ccncc12` (single isomer, unassigned; peak 2) [Example 7 peak 2] gave an IC50 of 6.3 nM.
`OCC[C@@H](O)c1cc(F)c(CN[C@H]2C[C@H](Oc3ccc(F)c(C(F)(F)F)c3)C2)c2ccncc12` (single isomer, unassigned; peak 2) [Example 9 peak 2] gave an IC50 of 13.7 nM.
`Nc1cc2c(CN[C@H]3C[C@H](Oc4ccc(F)c(C(F)(F)F)c4)C3)c(F)cc([C@H](O)CO)c2cn1` (single isomer, unassigned; peak 2) [Example 21 peak 2] gave an IC50 of 11.3 nM.
Compound `Cc1ccc2cnccc2c1CN[C@H]1C[C@H](Oc2ccc(F)c(C(F)(F)F)c2)C1` [Example 1, (1r,3r)-3-(4-fluoro-3-(trifluoromethyl)phenoxy)-N-((6-methylisoquinolin-5-yl)methyl)cyclobutan-1-amine, HCl] has an IC50 of 20.8 nM.
Work on `Cc1ccc2cnccc2c1CN[C@H]1C[C@H](Oc2ccc(C(F)(F)F)nc2)C1` [Example 2, (1r,3r)-N-((6-methylisoquinolin-5-yl)methyl)-3-((6-(trifluoromethyl)pyridin-3-yl)oxy)cyclobutan-1-amine, HCl] yielded an IC50 of 711 nM.
`Fc1ccc(O[C@H]2C[C@H](NCc3c(F)ccc4cnccc34)C2)cc1C(F)(F)F` [Example 3, (1r,3r)-3-(4-fluoro-3-(trifluoromethyl)phenoxy)-N-((6-fluoroisoquinolin-5-yl)methyl)cyclobutan-1-amine, HCl] gave an IC50 of 3.44 nM.
`Nc1ccc(CN[C@H]2C[C@H](Oc3ccc(F)c(C(F)(F)F)c3)C2)c2ccncc12` [Example 5, 5-((((1r,3r)-3-(4-fluoro-3-(trifluoromethyl)phenoxy)cyclobutyl)amino)methyl)isoquinolin-8-amine, HCl] showed an IC50 of 259 nM.
With `OCc1cc(F)c(CN[C@H]2C[C@H](Oc3ccc(F)c(C(F)(F)F)c3)C2)c2ccncc12` [Example 6, (6-fluoro-5-((((1r,3r)-3-(4-fluoro-3-(trifluoromethyl)phenoxy)cyclobutyl)amino)methyl)isoquinolin-8-yl)methanol, HCl] the IC50 was 7.25 nM.
`CC(O)c1cc(F)c(CN[C@H]2C[C@H](Oc3ccc(F)c(C(F)(F)F)c3)C2)c2ccncc12` (stereo partly drawn) [Example 8, 1-(6-fluoro-5-((((1r,3r)-3-(4-fluoro-3-(trifluoromethyl)phenoxy)cyclobutyl)amino)methyl)isoquinolin-8-yl)ethan-1-ol, HCl] was tested, and the IC50 was 165 nM.
`OCCc1cc(F)c(CN[C@H]2C[C@H](Oc3ccc(F)c(C(F)(F)F)c3)C2)c2ccncc12` [Example 10, 2-(6-fluoro-5-((((1r,3r)-3-(4-fluoro-3-(trifluoromethyl)phenoxy)cyclobutyl)amino)methyl)isoquinolin-8-yl)ethan-1-ol, HCl] showed an IC50 of 166 nM.
`OC(CC(F)(F)F)c1cc(F)c(CN[C@H]2C[C@H](Oc3ccc(F)c(C(F)(F)F)c3)C2)c2ccncc12` (stereo partly drawn) [Example 11, 3,3,3-trifluoro-1-(6-fluoro-5-((((1r,3r)-3-(4-fluoro-3-(trifluoromethyl)phenoxy)cyclobutyl)amino)methyl)isoquinolin-8-yl)propan-1-ol] gave an IC50 of 395 nM.
`Nc1cc(F)c(CN[C@H]2C[C@H](Oc3ccc(F)c(C(F)(F)F)c3)C2)c2ccncc12` [Example 12, 6-fluoro-5-((((1r,3r)-3-(4-fluoro-3-(trifluoromethyl)phenoxy)cyclobutyl)amino)methyl)isoquinolin-8-amine] was tested, and the IC50 was 57.8 nM.
`Nc1cc2c(CN[C@H]3C[C@H](Oc4ccc(F)c(C(F)(F)F)c4)C3)cccc2cn1` [Example 13, 5-((((1r,3r)-3-(4-fluoro-3-(trifluoromethyl)phenoxy)cyclobutyl)amino)methyl)isoquinolin-3-amine] was tested, and the IC50 was 63.7 nM.
For `Nc1cc2c(CN[C@H]3C[C@H](Oc4ccc(F)c(C(F)(F)F)c4)C3)c(F)ccc2cn1` [Example 14, 6-fluoro-5-((((1r,3r)-3-(4-fluoro-3-(trifluoromethyl)phenoxy)cyclobutyl)amino)methyl)isoquinolin-3-amine, HCl], the IC50 was 4.04 nM.
For `Nc1cc2c(CN[C@H]3C[C@H](Oc4ccc(F)cc4F)C3)c(F)ccc2cn1` [Example 15, 5-((((1r,3r)-3-(2,4-difluorophenoxy)cyclobutyl)amino)methyl)-6-fluoroisoquinolin-3-amine, HCl], the IC50 was 51 nM.
With `Nc1cc2c(CN[C@H]3C[C@H](Oc4ccnc(C(F)(F)F)c4)C3)c(F)ccc2cn1` [Example 16, 6-fluoro-5-((((1r,3r)-3-((2-(trifluoromethyl)pyridin-4-yl)oxy)cyclobutyl)amino)methyl)isoquinolin-3-amine, HCl] the IC50 was 31 nM.
Compound `Nc1cc2c(CN[C@H]3C[C@H](Oc4ccc(C(F)(F)F)nc4)C3)c(F)ccc2cn1` [Example 17, 6-fluoro-5-((((1r,3r)-3-((6-(trifluoromethyl)pyridin-3-yl)oxy)cyclobutyl)amino)methyl)isoquinolin-3-amine, HCl] has an IC50 of 130 nM.
With `Nc1cc2c(CN[C@H]3C[C@H](Oc4ccc(F)c(C(F)(F)F)c4)C3)c(F)cc(CO)c2cn1` [Example 18, (3-amino-6-fluoro-5-((((1r,3r)-3-(4-fluoro-3-(trifluoromethyl)phenoxy)cyclobutyl)amino)methyl)isoquinolin-8-yl)methanol, HCl] the IC50 was 1.63 nM.
With `Nc1cc2c(CN[C@H]3C[C@H](Oc4ccc(F)cc4F)C3)c(F)cc(CO)c2cn1` [Example 19, (3-amino-5-((((1r,3r)-3-(2,4-difluorophenoxy)cyclobutyl)amino)methyl)-6-fluoroisoquinolin-8-yl)methanol, HCl] the IC50 was 16.2 nM.
For `Nc1cc2c(CN[C@H]3C[C@H](Oc4ccnc(C(F)(F)F)c4)C3)c(F)cc(CO)c2cn1` [Example 20, (3-amino-6-fluoro-5-((((1r,3r)-3-((2-(trifluoromethyl)pyridin-4-yl)oxy)cyclobutyl)amino)methyl)isoquinolin-8-yl)methanol, HCl], the IC50 was 87.2 nM.
With `Fc1ccc(O[C@H]2C[C@H](NCc3cccc4cnccc34)C2)cc1C(F)(F)F` [Example 22, (1r,3r)-3-(4-fluoro-3-(trifluoromethyl)phenoxy)-N-(isoquinolin-5-ylmethyl)cyclobutan-1-amine, HCl] the IC50 was 436 nM.
For `Oc1ccc(CN[C@H]2C[C@H](Oc3ccc(F)c(C(F)(F)F)c3)C2)c2ccncc12` [Example 23, 5-((((1r,3r)-3-(4-fluoro-3-(trifluoromethyl)phenoxy)cyclobutyl)amino)methyl)isoquinolin-8-ol, HCl], the IC50 was 232 nM.
With `Cc1ccc(CN[C@H]2C[C@H](Oc3ccc(F)c(C(F)(F)F)c3)C2)c2ccncc12` [Example 24, (1r,3r)-3-(4-fluoro-3-(trifluoromethyl)phenoxy)-N-((8-methylisoquinolin-5-yl)methyl)cyclobutan-1-amine, HCl] the IC50 was 906 nM.
In the case of `OCc1ccc(CN[C@H]2C[C@H](Oc3ccc(F)c(C(F)(F)F)c3)C2)c2ccncc12` [Example 25, (5-((((1r,3r)-3-(4-fluoro-3-(trifluoromethyl)phenoxy)cyclobutyl)amino)methyl)isoquinolin-8-yl)methanol, HCl], the IC50 is reported as 100 nM.
`Fc1ccc(O[C@H]2C[C@H](NCc3c(F)ccc4cnccc34)C2)c(F)c1` [Example 26, (1r,3r)-3-(2,4-difluorophenoxy)-N-((6-fluoroisoquinolin-5-yl)methyl)cyclobutan-1-amine] gave an IC50 of 108 nM.
In the case of `Fc1ccc(O[C@H]2C[C@H](NCc3c(F)ccc4cnccc34)C2)cc1F` [Example 27, (1r,3r)-3-(3,4-difluorophenoxy)-N-((6-fluoroisoquinolin-5-yl)methyl)cyclobutan-1-amine, HCl], the IC50 is reported as 23 nM.
In the case of `Fc1ccc(O[C@H]2C[C@H](NCc3cccc4cnccc34)C2)cc1Cl` [Example 28, (1r,3r)-3-(3-chloro-4-fluorophenoxy)-N-(isoquinolin-5-ylmethyl)cyclobutan-1-amine, HCl], the IC50 is reported as 280 nM.
`Fc1ccc2cnccc2c1CN[C@H]1C[C@H](Oc2cccc(OC(F)F)c2)C1` [Example 29, (1r,3r)-3-(3-(difluoromethoxy)phenoxy)-N-((6-fluoroisoquinolin-5-yl)methyl)cyclobutan-1-amine, HCl] gave an IC50 of 62.3 nM.
For `Fc1ccc2cnccc2c1CN[C@H]1C[C@H](Oc2ccc(OC(F)F)cc2)C1` [Example 30, (1r,3r)-3-(4-(difluoromethoxy)phenoxy)-N-((6-fluoroisoquinolin-5-yl)methyl)cyclobutan-1-amine, HCl], the IC50 was 186 nM.
With `Fc1ccc2cnccc2c1CN[C@H]1C[C@H](Oc2ccc3ccccc3c2)C1` [Example 31, (1r,3r)-N-((6-fluoroisoquinolin-5-yl)methyl)-3-(naphthalen-2-yloxy)cyclobutan-1-amine, HCl] the IC50 was 264 nM.
`Fc1ccc2ccc(O[C@H]3C[C@H](NCc4c(F)ccc5cnccc45)C3)cc2c1` [Example 32, (1r,3r)-N-((6-fluoroisoquinolin-5-yl)methyl)-3-((7-fluoronaphthalen-2-yl)oxy)cyclobutan-1-amine, HCl] showed an IC50 of 102 nM.
